Source: patent EP0915099A1, “Antiparallel oligopeptides and hydrophobically complementary oligopeptides, matrices containing them and use thereof in the purification and detection of subtypes of alpha interferon” (ALFA WASSERMANN S.p.A., priority 1997, dated 1999)

Tested on: subtypes of Hu-IFNα
Assay: affinity of the peptides in solution and bound to solid supports (affinity chromatography)
Assay type: binding, human
Conditions: both in solution and bound to solid supports
Description: Therefore they can be used, when bound to suitable matrices on solid supports, in affinity chromatography for the separation and purification of the subtype Hu-IFNα8. Moreover, when conveniently functionalized, they can be used for the specific detection of Hu-IFNα8 in analytical techniques like the detection of compounds splitted in SDS-PAGE and transferred on nitrocellulose sheets (SDS-PAGE-blotting) or the detection of compounds immobilized on solid supports (enzyme linked immuno sorbent assay or ELISA). Therefore the matrices on solid supports for the affinity chromatography to which the IFNα-AP, IFNω-AP, IFNα-IC and IFNω-IC oligopeptides are linked and the use thereof in the separation and purification of the Hu-IFNα8 protein are a further object of the invention.
Each of the peptides from number 1 to number 6, at the end of the synthesis, has been linked to a solid support useful for affinity chromatographies, preferably made by a polymeric resin based on acrylamide or agarose, and each matrix functionalized in this way has been packed on a chromatographic column on which, at a neutral pH, a mixture of Hu-IFNα having a specific activity between 1 e 100 x 10^5 international units for each milligram of total proteins (IU/mg) and with a Hu-IFNα concentration between 0.1 and 5 x 10^6 IU has been pressed through. […]

Substance	affinity for subtypes of Hu-IFNα
H-Gly-Phe-His-Asp-Phe-His-Ser-Asp-Asn-Phe-OH (H-GFHDFHSDNF-OH) [IFNω-AP]	only for some subtypes of Hu-IFNα, mainly for the subtype IFNα8
H-Gly-Ser-His-Asp-Phe-Cys-Ser-Asp-Asn-Leu-OH (H-GSHDFCSDNL-OH) [IFNα-AP]	only for some subtypes of Hu-IFNα, mainly for the subtype IFNα8
